According to patent US8940310B2, “Methods of treatment using TLR7 and/or TLR9 inhibitors” (Dynavax Technologies Corporation, priority 2010, dated 2015):
Entries after “also recorded” stand apart in the source; their conditions may differ. [I] = hypoxanthine (inosine)

How the values were obtained:
[1] = target: T1, TLR9 (Mus musculus, UniProt Q9EQU3); experiment: CpG-C ISS-induced serum cytokines in 129 mice; assay type: in vivo; settings: CpG-C ISS with IRS, serum at 6 hr, listed as IRS
T1 construct: endogenous in cells; host or cells: 129 mice, whole animal (serum IFN-alpha and IL-6)
T1 sequence (Q9EQU3 26-1032): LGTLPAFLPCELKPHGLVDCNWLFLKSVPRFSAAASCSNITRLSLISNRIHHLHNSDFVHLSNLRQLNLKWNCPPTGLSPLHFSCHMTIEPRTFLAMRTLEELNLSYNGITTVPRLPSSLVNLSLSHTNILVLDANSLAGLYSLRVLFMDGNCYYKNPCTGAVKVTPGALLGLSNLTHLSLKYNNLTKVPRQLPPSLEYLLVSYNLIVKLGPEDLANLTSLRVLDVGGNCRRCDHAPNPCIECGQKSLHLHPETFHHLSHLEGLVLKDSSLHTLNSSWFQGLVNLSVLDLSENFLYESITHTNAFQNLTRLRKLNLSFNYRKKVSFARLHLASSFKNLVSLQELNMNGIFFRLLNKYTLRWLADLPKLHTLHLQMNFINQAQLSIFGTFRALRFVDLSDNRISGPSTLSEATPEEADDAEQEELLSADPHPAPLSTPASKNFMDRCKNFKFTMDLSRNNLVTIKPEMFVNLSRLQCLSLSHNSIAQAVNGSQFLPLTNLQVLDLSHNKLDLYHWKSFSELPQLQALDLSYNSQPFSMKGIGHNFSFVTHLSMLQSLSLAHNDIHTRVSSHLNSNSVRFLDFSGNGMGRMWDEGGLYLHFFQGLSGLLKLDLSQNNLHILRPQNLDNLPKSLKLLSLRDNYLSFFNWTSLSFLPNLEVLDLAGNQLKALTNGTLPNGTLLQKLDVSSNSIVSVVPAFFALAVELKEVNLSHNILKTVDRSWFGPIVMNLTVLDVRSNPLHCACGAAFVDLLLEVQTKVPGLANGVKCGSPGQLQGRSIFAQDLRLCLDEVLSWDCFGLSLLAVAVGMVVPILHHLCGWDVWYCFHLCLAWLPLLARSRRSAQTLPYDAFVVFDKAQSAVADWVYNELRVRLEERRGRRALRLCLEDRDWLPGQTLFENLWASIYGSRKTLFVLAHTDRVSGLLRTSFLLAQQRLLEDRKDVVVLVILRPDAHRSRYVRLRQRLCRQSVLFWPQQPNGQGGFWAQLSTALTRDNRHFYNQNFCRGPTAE
Experimental: 129 mice were either left untreated or treated with CpG-C ISS (50 μg/mice) alone or with IRS (50 μg/mice) and serum was collected 6 hr later. IFN-α and IL-6 was evaluated by ELISA. n=6 mice per group±standard error of the mean.

[2] = tested on: PDC; settings: in vitro, with GC
[3] = target: T2, TLR9 (Homo sapiens, UniProt Q9NR96); experiment: Human PDC stimulated with HSV-1 (TLR9 ligand), IFN-α; assay type: cell-based; settings: TLR9L HSV
T2 construct: the primary human PDCs were thus stimulated with HSV-1 (4 MOI) or influenza (2 MOI); endogenous in cells; host or cells: primary human plasmacytoid dendritic cells from blood donors
T2 sequence (Q9NR96 26-1032): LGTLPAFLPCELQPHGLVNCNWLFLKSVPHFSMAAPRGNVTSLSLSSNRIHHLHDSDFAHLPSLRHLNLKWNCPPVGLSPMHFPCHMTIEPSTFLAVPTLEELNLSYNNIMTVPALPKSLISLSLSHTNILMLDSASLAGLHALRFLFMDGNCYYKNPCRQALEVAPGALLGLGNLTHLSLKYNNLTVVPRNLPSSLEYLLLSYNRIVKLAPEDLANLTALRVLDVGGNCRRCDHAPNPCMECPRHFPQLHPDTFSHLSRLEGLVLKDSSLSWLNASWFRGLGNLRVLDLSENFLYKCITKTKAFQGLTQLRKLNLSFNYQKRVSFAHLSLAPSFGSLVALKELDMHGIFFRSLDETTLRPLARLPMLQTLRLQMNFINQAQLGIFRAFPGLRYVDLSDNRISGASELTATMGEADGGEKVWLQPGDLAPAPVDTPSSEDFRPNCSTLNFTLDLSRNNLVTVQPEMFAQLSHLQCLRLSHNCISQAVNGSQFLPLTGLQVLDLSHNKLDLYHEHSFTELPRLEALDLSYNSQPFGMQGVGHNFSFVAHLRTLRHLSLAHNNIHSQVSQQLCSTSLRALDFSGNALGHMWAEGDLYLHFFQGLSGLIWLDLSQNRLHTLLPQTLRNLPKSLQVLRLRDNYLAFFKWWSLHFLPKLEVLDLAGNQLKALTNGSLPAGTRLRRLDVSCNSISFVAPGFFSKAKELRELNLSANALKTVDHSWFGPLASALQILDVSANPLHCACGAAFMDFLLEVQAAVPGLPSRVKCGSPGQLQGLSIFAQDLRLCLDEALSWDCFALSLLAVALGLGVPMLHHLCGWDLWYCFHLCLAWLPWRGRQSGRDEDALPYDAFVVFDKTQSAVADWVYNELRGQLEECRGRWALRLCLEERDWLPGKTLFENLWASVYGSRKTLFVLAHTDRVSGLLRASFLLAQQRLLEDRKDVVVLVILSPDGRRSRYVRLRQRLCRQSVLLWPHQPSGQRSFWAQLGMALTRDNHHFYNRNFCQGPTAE
Description: Human PDCs infected with herpes simplex virus type 1 (HSV-1 KOS strain) respond by producing IFN-α and this response is dependent on TLR-9 signaling. Human PDCs infected with influenza virus (FLU H1N1 strain, A/PR/8/34 from a patient in Puerto Rico 1934; See ATCC catalog VR-95) also respond by producing IFN-α, however, this response is dependent on TLR-7 signaling and independent of TLR-9. The effect of IRPs on innate immune response cytokine production by infected cells was examined. In a dose-dependent manner, the primary human PDCs were thus stimulated with HSV-1 (4 MOI) or influenza (2 MOI), either alone or in the presence of the tested IRPs. At 24 hours, supernatants were collected and cytokine levels, IFN-alpha, were measured by immunoassay.
Human PDCs from 16-18 donors were purified and infected with influenza virus (strain PR/8) or HSV-1. HSV was used at 4 MOI, while the influenza virus was used at 2 MOI. The amount of IFN-α produced by the cells was measured and compared to the amount of virus used for infection.
To further investigate the effectiveness of IRPs on TLR7 and TLR9 activation, various IRPs or control samples were assayed for immunoregulatory activity on human PDCs as described in Example 8.

Substance | CpG-ISS-induced activation, serum IFN-α and IL-6 [1] | GC sensitivity of TLR7/9-stimulated PDC [2] | IC50 [3] [nM] | IC90 [3] [nM]
5′-TGCTCCTGGAGGGGTTGT-3′ (DNA, backbone not given here) [SEQ ID NO:42] | prevented CpG-ISS-induced activation; also recorded: significantly reduced CpG-C ISS-mediated induction of cytokines | restored GC sensitivity to PDC | – | –
5′-TGC TCC TGG AGI GGT TGT-3′ (DNA TGCTCCTGGAGNGGTTGT; DNA, [I] at 12, backbone and methylation of C not given here) [SEQ ID NO:73] | – | – | 25 | 99
